Values quoted from earlier work, collected in article PMC7904743, “WIDOCK: a reactive docking protocol for virtual screening of covalent inhibitors” (Journal of Computer-Aided Molecular Design, 2021).
Like-named read-outs stand apart in the source and are kept apart here.

Tests used:
[1] = tested on: NUDT7; conditions: protein labeling at 200 μM; experimental actives if % labeling higher than 50%; cited from earlier work
[2] = thiol reactivity, cited from earlier work
[3] = tested on: OTUB2; conditions: experimental actives if % labeling higher than 50%, cited from earlier work
[4] = natural log of average rate constant k
[5] = natural logarithm of average rate constant
[6] = natural log of average kinetic rate constant
[7] = natural log of average rate constant

SMILES: O=C(CCl)Nc1nnc(C2CC2)o1 [PCM-0102187, O=C(CCl)Nc1nnc(C2CC2)o1]
- NUDT7 % labeling [1]: 0%
- ln(avg k) [2, 4]: -17.207
- ln(avg k) [2, 5]: -17.207
- OTUB2 % labeling [3]: 0%

SMILES: O=C(CCl)NC(=O)NC12CC3CC(CC(C3)C1)C2 [PCM-0102360, O=C(CCl)NC(=O)NC12CC3CC(CC(C3)C1)C2]
- NUDT7 % labeling [1]: 0%
- ln(avg k) [2, 4]: -16.068
- ln(avg k) [2, 5]: -16.068
- OTUB2 % labeling [3]: 12%

SMILES: O=C(CCl)Nc1ccc(F)c([N+](=O)[O-])c1 [PCM-0102238, O=C(CCl)Nc1ccc(F)c([N+](=O)[O-])c1]
- NUDT7 % labeling [1]: 23%
- ln(avg k) [2, 4]: -15.369
- ln(avg k) [2, 5]: -15.369
- OTUB2 % labeling [3]: 32%

SMILES: O=C(CCl)Nc1cc2c(cc1Cl)OCCCO2 [PCM-0102331, O=C(CCl)Nc1cc2c(cc1Cl)OCCCO2]
- NUDT7 % labeling [1]: 36%
- ln(avg k) [2, 4]: -16.178
- ln(avg k) [2, 5]: -16.178
- OTUB2 % labeling [3]: 26%

SMILES: CC(=O)N1CCC(NC(=O)CCl)CC1 [PCM-0102932, CC(=O)N1CCC(NC(=O)CCl)CC1]
- NUDT7 % labeling [1]: 0%
- ln(avg k) [2, 6]: -16.417
- ln(avg k) [2, 7]: -16.417
- OTUB2 % labeling ([3]; OTUB2 protein labeling): 7%

SMILES: CSc1ccc(NC(=O)CCl)cc1 [PCM-0102772, CSc1ccc(NC(=O)CCl)cc1]
- NUDT7 % labeling [1]: 13%
- ln(avg k) [2, 6]: -15.893
- ln(avg k) [2, 7]: -15.893
- OTUB2 % labeling ([3]; OTUB2 protein labeling): 28%

SMILES: Cc1cc(C)c(NC(=O)CCl)c(Cl)c1 [PCM-0102994, Cc1cc(C)c(NC(=O)CCl)c(Cl)c1]
- NUDT7 % labeling [1]: 26%
- ln(avg k) [2, 6]: -16.989
- ln(avg k) [2, 7]: -16.989
- OTUB2 % labeling ([3]; OTUB2 protein labeling): 0%

SMILES: CCc1cc(C(=O)NNC(=O)CCl)sc1C [PCM-0102300, CCc1cc(C(=O)NNC(=O)CCl)sc1C]
- NUDT7 % labeling [1]: 11%
- ln(avg k) [2, 4]: -17.034
- ln(avg k) [2, 5]: -17.034
- OTUB2 % labeling [3]: 83%

SMILES: Cc1cc(NC(=O)CCl)n(-c2ccccc2C)n1 [PCM-0102699, Cc1cc(NC(=O)CCl)n(-c2ccccc2C)n1]
- NUDT7 % labeling [1]: 0%
- ln(avg k) [2, 4]: -15.949
- ln(avg k) [2, 5]: -15.949
- OTUB2 % labeling [3]: 0%

SMILES: COc1ccc(C)cc1NC(=O)CCl [PCM-0103043, COc1ccc(C)cc1NC(=O)CCl]
- NUDT7 % labeling [1]: 6%
- ln(avg k) [2, 6]: -16.699
- ln(avg k) [2, 7]: -16.699
- OTUB2 % labeling ([3]; OTUB2 protein labeling): 27%

SMILES: CC(NC(=O)CCl)c1ccc(F)cc1 (stereo not drawn) [PCM-0102228, CC(NC(=O)CCl)c1ccc(F)cc1]
- NUDT7 % labeling [1]: 7%
- ln(avg k) [2, 4]: -15.820
- ln(avg k) [2, 5]: -15.820
- OTUB2 % labeling [3]: 20%

SMILES: O=C(CCl)N1CCOC(c2ccc(F)cc2)C1 (stereo not drawn) [PCM-0102615, O=C(CCl)N1CCOC(c2ccc(F)cc2)C1]
- NUDT7 % labeling [1]: 0%
- ln(avg k) [2, 4]: -15.513
- ln(avg k) [2, 5]: -15.513
- OTUB2 % labeling [3]: 0%

SMILES: CC(=O)c1sc(NC(=O)CCl)nc1C [PCM-0102838, CC(=O)c1sc(NC(=O)CCl)nc1C]
- NUDT7 % labeling [1]: 12%
- ln(avg k) [2, 6]: -16.064
- ln(avg k) [2, 7]: -16.064
- OTUB2 % labeling ([3]; OTUB2 protein labeling): 0%

SMILES: CN(CC1COc2ccccc2O1)C(=O)CCl (stereo not drawn) [PCM-0102756, CN(CC1COc2ccccc2O1)C(=O)CCl]
- NUDT7 % labeling [1]: 16%
- ln(avg k) [2, 6]: -15.581
- ln(avg k) [2, 7]: -15.581
- OTUB2 % labeling ([3]; OTUB2 protein labeling): 6%

SMILES: Cc1ccsc1CNC(=O)CCl [PCM-0103075, Cc1ccsc1CNC(=O)CCl]
- NUDT7 % labeling [1]: 0%
- ln(avg k) [2, 6]: -16.632
- ln(avg k) [2, 7]: -16.632
- OTUB2 % labeling ([3]; OTUB2 protein labeling): 55%

SMILES: N#CCN(C(=O)CCl)c1ccccc1 [PCM-0102471, N#CCN(C(=O)CCl)c1ccccc1]
- NUDT7 % labeling [1]: 0%
- ln(avg k) [2, 4]: -15.586
- ln(avg k) [2, 5]: -15.586
- OTUB2 % labeling [3]: 19%

SMILES: Cc1ccc(NC(=O)CCl)cc1I [PCM-0102577, Cc1ccc(NC(=O)CCl)cc1I]
- NUDT7 % labeling [1]: 34%
- ln(avg k) [2, 4]: -15.945
- ln(avg k) [2, 5]: -15.945
- OTUB2 % labeling [3]: 80%

SMILES: O=C(CCl)Nc1cccc(F)c1 [PCM-0102364, O=C(CCl)Nc1cccc(F)c1]
- NUDT7 % labeling [1]: 9%
- ln(avg k) [2, 4]: -15.960
- ln(avg k) [2, 5]: -15.960
- OTUB2 % labeling [3]: 0%

SMILES: O=C(CCl)Nc1ccc(Cl)nc1 [PCM-0102891, O=C(CCl)Nc1ccc(Cl)nc1]
- NUDT7 % labeling [1]: 25%
- ln(avg k) [2, 6]: -15.610
- ln(avg k) [2, 7]: -15.610
- OTUB2 % labeling ([3]; OTUB2 protein labeling): 0%

SMILES: CS(=O)(=O)c1cccc(NC(=O)CCl)c1 [PCM-0102407, CS(=O)(=O)c1cccc(NC(=O)CCl)c1]
- NUDT7 % labeling [1]: 0%
- ln(avg k) [2, 4]: -15.426
- ln(avg k) [2, 5]: -15.426
- OTUB2 % labeling [3]: 33%

SMILES: O=C(CCl)NC1CCOc2ccccc21 (stereo not drawn) [PCM-0102871, O=C(CCl)NC1CCOc2ccccc21]
- NUDT7 % labeling [1]: 0%
- ln(avg k) [2, 6]: -16.366
- ln(avg k) [2, 7]: -16.366
- OTUB2 % labeling ([3]; OTUB2 protein labeling): 44%
